Where “and” joins values, the source holds several entries; their conditions need not be identical. Equal entries are not always repeated.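 Cultured in 96-well plates, cells were exposed to test compound for 48 hours across five concentrations. GI50 is the concentration that inhibits growth by half. The concentration for full growth arrest is given as TGI.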
tested on: HS 578T breast; experiment: NCI-60 cell line screen, 48 h

Row | SMILES | GI50 | TGI
1 | CC(C)c1ccc2c(c1)CC[C@@H]1[C@@](C)(C(=O)O)CCC[C@]21C | 3.08 µM | 9 µM
2 | C=C1C(=O)O[C@@H]2C[C@@H]1CC/C(C)=C/CC/C(C)=C/CC[C@@]2(C)O | 28.5 µM | 72.4 µM
3 | CC(C)=CC/C=C(/C)[C@H]1CC[C@]2(C)[C@@H]1CC[C@@H]1[C@@]3(C)CCCNC(C)(C)[C@@H]3CC[C@]12C | 4.96 µM | 22.3 µM
4 | CCC(C)n1ncn(-c2ccc(N3CCN(c4ccc(OCC5COC(Cn6cncn6)(c6ccc(Cl)cc6Cl)O5)cc4)CC3)cc2)c1=O (configuration not stated) | 7.42 µM | > 100 µM
5 | Cc1nc2c(-c3cnc(N)nc3)nc(N3CCOCC3)nc2n1C(C)C |  | 0.578 µM and 0.199 µM
6 | N#Cc1c(NN)n(C2OC(CO)C(O)C2O)c2ncnc(N)c12 (configuration not stated) | 0.0382 µM | 0.429 µM
7 | Cc1ccc(C)c(C2=C(c3cn(C)c4ccccc34)C(=O)NC2=O)c1 | > 25 µM | > 25 µM
8 | COc1cnc2c(c1)C(=O)c1c-2n(CCCNC(C)C)c(=O)c2cc(Cl)ccc12 | 1.52 µM | 4.08 µM
9 | COc1ccc2c(c1)CCCC(Br)C2=O (configuration not stated) |  | > 94.3 µM
10 | COc1cc(N(CCC#N)CCC#N)ccc1/C(N=Nc1ccc([N+](=O)[O-])cc1)=N/NC(=O)c1cc(Br)ccc1O | 69.8 µg/mL | > 150 µg/mL
11 | C=C1C(=O)OC2CCN3CC=C(COC(=O)C(C)(O)C4(CO4)C1C)C23 (configuration not stated) |  | > 100 µM
12 | CS(=O)(=O)Nc1ccc2c(c1)oc(=O)c1ccccc12 |  | > 100 µM

tested on: ACHN renal; experiment: NCI-60 cell line screen, 48 h

Row | SMILES | GI50 | TGI
13 | CC(C)c1ccc2c(c1)CC[C@@H]1[C@@](C)(C(=O)O)CCC[C@]21C | 11.4 µM | 23.5 µM
14 | C=C1C(=O)O[C@@H]2C[C@@H]1CC/C(C)=C/CC/C(C)=C/CC[C@@]2(C)O | 13 µM | 28.1 µM
15 | CC(C)=CC/C=C(/C)[C@H]1CC[C@]2(C)[C@@H]1CC[C@@H]1[C@@]3(C)CCCNC(C)(C)[C@@H]3CC[C@]12C | 3.37 µM | 12.4 µM
16 | CCC(C)n1ncn(-c2ccc(N3CCN(c4ccc(OCC5COC(Cn6cncn6)(c6ccc(Cl)cc6Cl)O5)cc4)CC3)cc2)c1=O (configuration not stated) | 21.7 µM | > 100 µM
17 | Cc1nc2c(-c3cnc(N)nc3)nc(N3CCOCC3)nc2n1C(C)C |  | > 100 µM
18 | N#Cc1c(NN)n(C2OC(CO)C(O)C2O)c2ncnc(N)c12 (configuration not stated) | 0.0385 µM | 
19 | Cc1ccc(C)c(C2=C(c3cn(C)c4ccccc34)C(=O)NC2=O)c1 | 9.15 µM | > 25 µM
20 | COc1ccc2c(c1)CCCC(Br)C2=O (configuration not stated) |  | 20.7 µM
21 | COc1cc(N(CCC#N)CCC#N)ccc1/C(N=Nc1ccc([N+](=O)[O-])cc1)=N/NC(=O)c1cc(Br)ccc1O | 39.6 µg/mL | 131 µg/mL
22 | C=C1C(=O)OC2CCN3CC=C(COC(=O)C(C)(O)C4(CO4)C1C)C23 (configuration not stated) |  | > 100 µM
23 | CS(=O)(=O)Nc1ccc2c(c1)oc(=O)c1ccccc12 |  | > 100 µM

tested on: UACC-257 melanoma; experiment: NCI-60 cell line screen, 48 h

Row | SMILES | GI50 | TGI
24 | CC(C)c1ccc2c(c1)CC[C@@H]1[C@@](C)(C(=O)O)CCC[C@]21C | 0.33 µM | 3.86 µM
25 | C=C1C(=O)O[C@@H]2C[C@@H]1CC/C(C)=C/CC/C(C)=C/CC[C@@]2(C)O | 17.5 µM | 41.9 µM
26 | CC(C)=CC/C=C(/C)[C@H]1CC[C@]2(C)[C@@H]1CC[C@@H]1[C@@]3(C)CCCNC(C)(C)[C@@H]3CC[C@]12C | 3.05 µM | 11 µM
27 | CCC(C)n1ncn(-c2ccc(N3CCN(c4ccc(OCC5COC(Cn6cncn6)(c6ccc(Cl)cc6Cl)O5)cc4)CC3)cc2)c1=O (configuration not stated) | 57.7 µM | > 100 µM
28 | N#Cc1c(NN)n(C2OC(CO)C(O)C2O)c2ncnc(N)c12 (configuration not stated) | 0.267 µM | 1.66 µM
29 | Cc1ccc(C)c(C2=C(c3cn(C)c4ccccc34)C(=O)NC2=O)c1 | > 25 µM | > 25 µM
30 | COc1cnc2c(c1)C(=O)c1c-2n(CCCNC(C)C)c(=O)c2cc(Cl)ccc12 | 12.1 µM | 32.8 µM
31 | COc1ccc2c(c1)CCCC(Br)C2=O (configuration not stated) |  | 32.1 µM
32 | COc1cc(N(CCC#N)CCC#N)ccc1/C(N=Nc1ccc([N+](=O)[O-])cc1)=N/NC(=O)c1cc(Br)ccc1O | 52.3 µg/mL | > 150 µg/mL
33 | C=C1C(=O)OC2CCN3CC=C(COC(=O)C(C)(O)C4(CO4)C1C)C23 (configuration not stated) |  | > 100 µM
34 | CS(=O)(=O)Nc1ccc2c(c1)oc(=O)c1ccccc12 |  | > 100 µM

tested on: BT-549 breast; experiment: NCI-60 cell line screen, 48 h

Row | SMILES | GI50 | TGI
35 | CC(C)c1ccc2c(c1)CC[C@@H]1[C@@](C)(C(=O)O)CCC[C@]21C | 1.47 µM | 4.59 µM
36 | C=C1C(=O)O[C@@H]2C[C@@H]1CC/C(C)=C/CC/C(C)=C/CC[C@@]2(C)O | 21.1 µM | 40.4 µM
37 | CC(C)=CC/C=C(/C)[C@H]1CC[C@]2(C)[C@@H]1CC[C@@H]1[C@@]3(C)CCCNC(C)(C)[C@@H]3CC[C@]12C | 12.4 µM | 32.5 µM
38 | CCC(C)n1ncn(-c2ccc(N3CCN(c4ccc(OCC5COC(Cn6cncn6)(c6ccc(Cl)cc6Cl)O5)cc4)CC3)cc2)c1=O (configuration not stated) | 3.6 µM | > 100 µM
39 | Cc1nc2c(-c3cnc(N)nc3)nc(N3CCOCC3)nc2n1C(C)C |  | 2.22 µM
40 | N#Cc1c(NN)n(C2OC(CO)C(O)C2O)c2ncnc(N)c12 (configuration not stated) | 0.271 µM | 2.8 µM
41 | Cc1ccc(C)c(C2=C(c3cn(C)c4ccccc34)C(=O)NC2=O)c1 | > 25 µM | > 25 µM
42 | COc1cnc2c(c1)C(=O)c1c-2n(CCCNC(C)C)c(=O)c2cc(Cl)ccc12 | 0.698 µM | 2.59 µM
43 | COc1ccc2c(c1)CCCC(Br)C2=O (configuration not stated) |  | 7.31 µM
44 | COc1cc(N(CCC#N)CCC#N)ccc1/C(N=Nc1ccc([N+](=O)[O-])cc1)=N/NC(=O)c1cc(Br)ccc1O | 53 µg/mL | > 150 µg/mL
45 | C=C1C(=O)OC2CCN3CC=C(COC(=O)C(C)(O)C4(CO4)C1C)C23 (configuration not stated) |  | > 100 µM
46 | CS(=O)(=O)Nc1ccc2c(c1)oc(=O)c1ccccc12 |  | > 100 µM

tested on: HCC-2998 colon; experiment: NCI-60 cell line screen, 48 h

Row | SMILES | GI50 | TGI
47 | CC(C)c1ccc2c(c1)CC[C@@H]1[C@@](C)(C(=O)O)CCC[C@]21C | 6.07 µM | 22.3 µM
48 | C=C1C(=O)O[C@@H]2C[C@@H]1CC/C(C)=C/CC/C(C)=C/CC[C@@]2(C)O | 14 µM | 28.7 µM
49 | CC(C)=CC/C=C(/C)[C@H]1CC[C@]2(C)[C@@H]1CC[C@@H]1[C@@]3(C)CCCNC(C)(C)[C@@H]3CC[C@]12C | 1.97 µM | 3.56 µM
50 | CCC(C)n1ncn(-c2ccc(N3CCN(c4ccc(OCC5COC(Cn6cncn6)(c6ccc(Cl)cc6Cl)O5)cc4)CC3)cc2)c1=O (configuration not stated) | 84.1 µM | > 100 µM
51 | Cc1nc2c(-c3cnc(N)nc3)nc(N3CCOCC3)nc2n1C(C)C |  | 4.27 µM and 24.8 µM
52 | N#Cc1c(NN)n(C2OC(CO)C(O)C2O)c2ncnc(N)c12 (configuration not stated) | 0.292 µM | 2.41 µM
